Measurements from article PMC5059921, “Chalepin: isolated from Ruta angustifolia L. Pers induces mitochondrial mediated apoptosis in lung carcinoma cells” (BMC Complementary and Alternative Medicine, 2016).
Where two headings read alike, the source gives them in different places.

Experiments:
washed rabbit platelets = system: washed rabbit platelets; set-up: method as in earlier work; key to effect on platelet aggregation (class symbol): A: P latelet aggregation was promoted; conditions: cited from earlier work; for % inhibition of platelet aggregation, inducer AA: AA 100 /c109/c77; for % inhibition of platelet aggregation, inducer PAF: PAF 2ng/mL; for % inhibition of platelet aggregation, inducer Col: collagen 10 /c109g/mL; for % inhibition of platelet aggregation, inducer Thr: thrombin 0.1 U/mL; for antiplatelet aggregation activity (in words): at 100 /c109g/mL
Hepa: Human hepatoma = system: Hepa: Human hepatoma; set-up: method as in earlier work; conditions: cited from earlier work
A549 cell line = experiment: SRB in vitro cytotoxicity screening; type: cell-based, human; conditions: isolated compounds
Description: (§1) The human cell lines A549 (lung cancer) and Ca Ski (cervical cancer) were cultured as monolayer in RPMI 1640 growth media whereas HCT-116 (colon cancer) and MRC5 (human normal lung fibroblasts) was cultured in McCoy’s 5A and EMEM medium, respectively. All cells were purchased from the […] (ATCC, USA). All the media were supplemented with 10 % v/v foetal bovine serum (FBS), 100 μg/mL penicillin/streptomycin, and 50 μg/mL amphotericin B. The cells were cultured in a 5 % CO2 incubator at 37 °C.
(§2) The monolayer cell culture was detached using accutase and the cell count was adjusted to 2.5 x10^5 -3.0 x10^5 cells/mL using medium containing feotal bovine serum. The cells were then plated into 96 wells with a cell density of 5000-7000 cells/well and then incubated for 24 h to allow adherence of cells to the base of well of the plates. The media was then removed and 200 μl of fresh media containing different concentration of various extracts or isolated compounds were added. Cisplatin was used as the positive control. The plates were incubated for 24, 48 and 72 h at 37 °C and 5 % CO2. The cytotoxicity of the extracts and isolated compounds were screened using the […] (SRB) assay. This assay was first described by Houghton in 2007 [8]. The incubation was halted by gentle addition of 50 μl ice cold 4 % trichloroacetic acid (TCA) to each well and the plates were incubated at 4 °C for 1 h. Then, the supernatant was discarded and the plates were washed with distilled water for 5 times and then air dried. SRB dye, 50 μl, (0.4 % w/v) was added into each well and the treated cells and control were incubated at room temperature for 30 min. The unbound dye was removed by rapid washing four times with 1 % acetic acid. The plates were then air dried and 100 μl of tris base (10 mM unbuffered, pH 10.5) was added and the plates were shaken at 500 rpm for 5 min to solublize the bound SRB stain. The plates were then read with an ELISA reader (Synergy H1 Hybrid) at an absorbance of 492 nm.

[1] = system: MRC5 (human normal lung fibroblasts); experiment: SRB in vitro cytotoxicity screening (toxicity to normal cells); type: cell-based; conditions: isolated compounds; for IC50: 72 h, read-out: IC50 in μg/ml (μM) (MRC5) 72 h (converted)
Description: as §1, §2

[2] = system: DLD (DLD-1): Human colon adenocarcinoma; set-up: method as in earlier work; conditions: cited from earlier work
[3] = system: Hela: Human cervix epithelioid carcinoma; set-up: method as in earlier work; conditions: cited from earlier work
[4] = Homo sapiens, A549, 48 h, value in brackets, read-out: IC50 in μg/ml (μM) (A549) 48 h (converted)
[5] = Homo sapiens, A549, 48 h, read-out: IC50 in μg/ml (μM) (A549) 48 h (converted)
[6] = Homo sapiens, A549, 72 h, value in brackets, read-out: IC50 in μg/ml (μM) (A549) 72 h (converted)
[7] = Homo sapiens, A549, 72 h, read-out: IC50 in μg/ml (μM) (A549) 72 h (converted)
[8] = Homo sapiens, MRC5, value in brackets

Row | Compound | antiplatelet aggregation activity (in words) (washed rabbit platelets) | ED50 Hepa (Hepa: Human hepatoma) | IC50 (A549 cell line; [4]) | IC50 (A549 cell line; [5]) | IC50 (A549 cell line; [6]) | IC50 (A549 cell line; [7]) | IC50 [1, 8] | IC50 ([1]; Homo sapiens, MRC5) | ED50 DLD [2] | also measured
1 | 1-hydroxy-N-methylacridone [Compound 1] | no obvious activity | - (“-“: ED50 /c6220 /c109g/mL) |  |  |  |  |  |  |  | % inhibition of platelet aggregation, inducer AA (washed rabbit platelets; Conc. 20 /c109g/mL): 17.8%; % inhibition of platelet aggregation, inducer PAF (washed rabbit platelets; Conc. 20 /c109g/mL): 3.4%; % inhibition of platelet aggregation, inducer Col (washed rabbit platelets; Conc. 20 /c109g/mL): 3.7%; % inhibition of platelet aggregation, inducer Thr (washed rabbit platelets; Conc. 20 /c109g/mL): 4.3%; effect on platelet aggregation (class symbol) (washed rabbit platelets; Conc. 50 /c109g/mL, inducer column cannot be told): A
2 | COc1c2ccoc2cc2oc(=O)ccc12 [Bergapten, bergapten] |  |  | > 463 µM | > 100 µg/mL | 202 µM | 43.5 ± 1.81 µg/mL | > 463 µM | > 100 µg/mL |  | 
3 | N.N.[Cl][Pt][Cl] [Cisplatin, reference compound] |  |  |  |  |  |  |  |  |  | IC50 in μg/ml (μM) (A549) 72 h (A549 cell line; 72 h): 24.5 ± 1.8 µg/mL; IC50 (A549 cell line; 72 h, value in brackets, read-out: IC50 in μg/ml (μM) (A549) 72 h (converted)): 81.7 µM; IC50 in μg/ml (μM) (MRC5) 72 h [1]: > 100 µg/mL; IC50 ([1]; value in brackets): > 333 µM
4 | COc1cc2c(c(O)c1OC)c(=O)c1ccccc1n2C [Compound 2, arborinine] | no obvious activity | - (“-“: ED50 /c6220 /c109g/mL) |  |  |  |  |  |  | - (“-“: ED50 /c6220 /c109g/mL) | % inhibition of platelet aggregation, inducer AA (washed rabbit platelets; Conc. 50 /c109g/mL): 51.6%; % inhibition of platelet aggregation, inducer PAF (washed rabbit platelets; Conc. 50 /c109g/mL): 4.8%; % inhibition of platelet aggregation, inducer Col (washed rabbit platelets; Conc. 50 /c109g/mL): 39.1%; % inhibition of platelet aggregation, inducer Thr (washed rabbit platelets; Conc. 50 /c109g/mL): 1.1%
5 | COc1cc2nc3occc3c(OC)c2cc1OC [Compound 6, kokusaginine] | no obvious activity | - (“-“: ED50 /c6220 /c109g/mL) |  |  |  |  |  |  | - (“-“: ED50 /c6220 /c109g/mL) | % inhibition of platelet aggregation, inducer AA (washed rabbit platelets; Conc. 100 /c109g/mL): 42.2%; % inhibition of platelet aggregation, inducer PAF (washed rabbit platelets; Conc. 100 /c109g/mL): 3.5%; % inhibition of platelet aggregation, inducer Col (washed rabbit platelets; Conc. 100 /c109g/mL): 53.1%; % inhibition of platelet aggregation, inducer Thr (washed rabbit platelets; Conc. 100 /c109g/mL): 0.9%
6 | COc1c2ccoc2c(OC)c2oc(=O)ccc12 [Compound 11, isopimpinellin] | no obvious activity |  |  |  |  |  |  |  |  | % inhibition of platelet aggregation, inducer AA (washed rabbit platelets; Conc. 100 /c109g/mL): 30.4%; % inhibition of platelet aggregation, inducer PAF (washed rabbit platelets; Conc. 100 /c109g/mL): 4.5%; % inhibition of platelet aggregation, inducer Col (washed rabbit platelets; Conc. 100 /c109g/mL): 8.0%; % inhibition of platelet aggregation, inducer Thr (washed rabbit platelets; Conc. 100 /c109g/mL): 3.9%
7 | C=CC(C)(C)c1cc2cc3c(cc2oc1=O)OC(C(C)(C)OC(C)=O)C3 (centres unmarked) [Compound 14, rutamarin] | no obvious activity | - (“-“: ED50 /c6220 /c109g/mL) |  |  |  |  |  |  |  | % inhibition of platelet aggregation, inducer AA (washed rabbit platelets; Conc. 50 /c109g/mL): 7.6%; % inhibition of platelet aggregation, inducer PAF (washed rabbit platelets; Conc. 50 /c109g/mL): 4.5%; % inhibition of platelet aggregation, inducer Col (washed rabbit platelets; Conc. 50 /c109g/mL): 10.5%; % inhibition of platelet aggregation, inducer Thr (washed rabbit platelets; Conc. 50 /c109g/mL): 3.0%
8 | COc1cc2ccc(=O)oc2cc1O [Compound 15, scopoletin] | no obvious activity | - (“-“: ED50 /c6220 /c109g/mL) |  |  |  |  |  |  | - (“-“: ED50 /c6220 /c109g/mL) | % inhibition of platelet aggregation, inducer AA (washed rabbit platelets; Conc. 100 /c109g/mL): 14.7%; % inhibition of platelet aggregation, inducer PAF (washed rabbit platelets; Conc. 100 /c109g/mL): 1.6%; % inhibition of platelet aggregation, inducer Col (washed rabbit platelets; Conc. 100 /c109g/mL): 3.4%; % inhibition of platelet aggregation, inducer Thr (washed rabbit platelets; Conc. 100 /c109g/mL): 1.5%; ED50 Hela [3]: - (“-“: ED50 /c6220 /c109g/mL)
9 | Cn1c(-c2ccc3c(c2)OCO3)cc(=O)c2ccccc21 [Compound 17, graveoline] | no obvious activity | - (“-“: ED50 /c6220 /c109g/mL) |  |  |  |  |  |  | - (“-“: ED50 /c6220 /c109g/mL) | % inhibition of platelet aggregation, inducer AA (washed rabbit platelets; Conc. 50 /c109g/mL): 9.5%; % inhibition of platelet aggregation, inducer PAF (washed rabbit platelets; Conc. 50 /c109g/mL): 6.2%; % inhibition of platelet aggregation, inducer Col (washed rabbit platelets; Conc. 50 /c109g/mL): 5.2%; % inhibition of platelet aggregation, inducer Thr (washed rabbit platelets; Conc. 50 /c109g/mL): 1.1%
10 | Cn1c(-c2ccc3c(c2)OCO3)cc(=O)c2ccccc21 [Graveoline, graveoline] |  |  | 274 µM | 76.3 ± 2.08 µg/mL | 160 µM | 44.6 ± 0.47 µg/mL | 250 µM | 69.7 ± 2.5 µg/mL |  | 
11 | COc1cc2nc3occc3c(OC)c2cc1OC [Kokusaginine, kokusaginine] |  |  |  |  |  |  | 289 µM | 74.8 ± 0.82 µg/mL |  | IC50 (A549 cell line; Homo sapiens, A549, 48 h, 48 h, value in brackets, read-out: IC50 in μg/ml (μM) (A549) 48 h (converted)): 338 µM; IC50 (A549 cell line; Homo sapiens, A549, 48 h, 48 h, read-out: IC50 in μg/ml (μM) (A549) 48 h (converted)): 87.4 ± 7.08 µg/mL; IC50 (A549 cell line; Homo sapiens, A549, 72 h, 72 h, value in brackets, read-out: IC50 in μg/ml (μM) (A549) 72 h (converted)): > 386 µM; IC50 (A549 cell line; Homo sapiens, A549, 72 h, 72 h, read-out: IC50 in μg/ml (μM) (A549) 72 h (converted)): > 100 µg/mL
12 | CC(=O)CCCCc1ccc2c(c1)OCO2 [Moskachan B, moskachan B] |  |  | > 454 µM | > 100 µg/mL | > 454 µM | > 100 µg/mL | > 454 µM | > 100 µg/mL |  | 
13 | CC(=O)CCCCCCc1ccc2c(c1)OCO2 [Moskachan D, moskachan D] |  |  | 312 µM | 77.5 ± 3 µg/mL | 74.6 µM | 18.5 ± 0.65 µg/mL | 366 µM | 90.8 ± 0.8 µg/mL |  | 
14 | C=CC(=C)CCCC(C)CCCC(C)CCCC(C)C (centres unmarked) [Neophytadiene, neophytadiene] |  |  | 249 µM | 69.2 ± 1.06 µg/mL | 245 µM | 68 ± 2.43 µg/mL | 278 µM | 77.4 ± 0.98 µg/mL |  | 
15 | bergapten [Compound 9] | no obvious activity | - (“-“: ED50 /c6220 /c109g/mL) |  |  |  |  |  |  | - (“-“: ED50 /c6220 /c109g/mL) | % inhibition of platelet aggregation, inducer AA (washed rabbit platelets; Conc. 50 /c109g/mL): 63.5%; % inhibition of platelet aggregation, inducer PAF (washed rabbit platelets; Conc. 50 /c109g/mL): 4.5%; % inhibition of platelet aggregation, inducer Col (washed rabbit platelets; Conc. 50 /c109g/mL): 59.0%; % inhibition of platelet aggregation, inducer Thr (washed rabbit platelets; Conc. 50 /c109g/mL): 7.5%; ED50 Hela [3]: - (“-“: ED50 /c6220 /c109g/mL)
